Reference: publication PMC12384620, “Hit-to-Lead Studies of Pyrazinylpiperazines against Visceral Leishmaniasis: Pharmacokinetic Profile and In Vivo Efficacy of Potent Compounds against Leishmania infantum” (ACS Pharmacology & Translational Science, 2025)
Values after ≈ are worked out from the molar mass of the structure shown. Read-outs that look alike come from different tables or passages of the source.

What was measured:
[1] = Kinetic solubility; assay type: physicochemical; conditions: PBS, 25 °C, kinetic from dmso stock
Experimental: (§1) The analysis was performed using LC-MS/MS (liquid chromatography-tandem mass spectrometry). The LC-MS/MS system used consisted of a Prominence UFLC (Shimadzu Corporation, Kyoto, Japan) chromatography system, interfaced with a LCMS-8045 triple quadrupole mass spectrometer (Shimadzu Corporation, Kyoto, Japan) equipped with an electrospray ionization source (ESI).
PBS pH 7.4 or 2.0 (final concentration of 250 μM) was added to each well of the plates, and the DMSO concentration was kept lower than 2.5%. The plates were sealed and shaken for 24 h (200 rpm/25 °C). The precipitates on the incubation plate were removed by centrifugation (15 min/3000 rpm/25 °C), and the supernatant fractions were quantified by LC-MS/MS. An intermediate standard solution diluted at 0.5 mM in acetonitrile:water (1:1) was prepared from a 10 mM standard solution. A calibration curve was prepared for each of the test compounds and controls by diluting several times the intermediate standard solution to reach the desired concentrations of 50, 40, 20, 2, and 1 μM. The resulting equation for the calibration curve (y = mx + b) was used to calculate the experimental concentration values for the compounds. The chromatogram for analysis was achieved on a Supelco Ascentis express C18 column (3 cm x 2.1 mm, […]), using water +0.05% formic acid (A) and acetonitrile +0.05% formic acid (B) as mobile phases. […]

[2] = test system: L. infantum::tdTomato; assay type: in vivo, mouse; conditions: for parasitemia reduction in the spleen / parasitemia reduction in the liver: 20 dpi, vs untreated control
Experimental: BALB/c mice (male, 6 to 8 weeks old, 18 to 20 g) were inoculated intravenously (tail vein) with 2 × 10^7 late-log-phase L. infantum promastigotes from Li::tdTomato lines, and randomly assigned into one of the four treatment groups (six mice per group). After 7 days of infection, […] was administered intraperitoneally in a single dose 500 mg/kg/day meglumine antimoniate (Glucantime, Sanofi Medley), both groups treated with 2 received two daily intraperitoneal injections totaling either 50 mg/kg/day or 100 mg/kg/day of 2, and the control group was administered the vehicle solution. For the intraperitoneal injection, 2 was formulated as follows: a stock solution of 2 in DMSO (100 mg/mL) was prepared daily, and a solution of 70% PBS1X, 20% PEG 400 (Polyethylene Glycol 400, Sigma-Aldrich), 0.16% Tween 80 and 10% of 2 (from the stock solution) was prepared. The control group was also administered this solution, replacing 2 with 10% DMSO. All mice were euthanized 3 days after the end of the treatment, and the liver and spleen of each animal were collected.
The number of viable parasites in each organ was determined using a quantitative limiting dilution assay. Briefly, the organs were macerated using an Ultra-Turrax disperser (IKA-Werke GmbH & Co. KG., Staufen, Germany), and a tissue homogenate was obtained with 1 mL of M199 medium. Each tissue homogenate was sequentially diluted (10-fold) in 96-well flat-bottom microtiter black plates and incubated at 26 °C for 10 days. The wells containing motile promastigotes were identified with an inverted microscope (Axiovert 25, Zeiss), and the parasite burden was determined from the highest dilution at which promastigotes had grown after 10 days of incubation.

[3] = test system: L. infantum promastigotes; test: Antileishmanial activity against promastigotes (MTS); assay type: cell-based; conditions: Leishmania infantum, 72 h
Experimental: L. infantum promastigotes (MHOM/MA/67/ITMAP-263) were cultured in complete Schneider medium (SigmaAldrich, St. Louis, MO, USA), which consisted of Schneider medium plus 10% heat-inactivated fetal bovine serum (FBS, SigmaAldrich) pH 7.4, at 24 °C. The L. infantum promastigotes were plated at a concentration of 10^5 parasites/mL, and 2 was added at concentrations of 64, 32, 16, 8, 4, 2, 1, 0.5, 0.25, and 0.125 μM. The cells were cultured for 72 h and, after the incubation time, cell proliferation was measured by colorimetric MTS assay. The cells in each well were stained with 20 μL of MTS (Promega, G3580) for 3 h, and the OD at 490 nm was determined with a microplate reader. All experiments were independently repeated at least three times.

[4] = Experimental lipophilicity elog(D) at pH 7.4 by retention time; assay type: physicochemical; conditions: pH 7.4, chromatographic
Experimental: as §1, with “The chromatography” for “The LC-MS/MS”, “used was” for “used consisted of”, “Kyoto, Japan),” for “Kyoto, Japan) chromatography system,”
For the determination of the distribution coefficient (elog(D)), a methodology based on the retention time of molecules in the stationary phase was used. The chromatogram was achieved on a Supelco Ascentis express RP amide HPLC column (5 cm x 2.1 mm, […]), using 5% methanol in 10 mM ammonium acetate pH 7.4 (A) and 100% methanol (B) as mobile phases. The mobile phase was eluted in binary gradient mode, as follows: 0 min: 95% A; 0.3 min: 100% A; 5.2 min: 0% A; 5.6 min: 0% A; 5.8 min: 100% A; 7.0 min: 100% A. The total run time was 7 min, and 5 μL of each sample were injected. The solutions of tested compounds were prepared at a concentration of 1.0 mg/mL in compound by adding the stock solution to a (1:1) mix of mobile phases A:B (internal standard at 200 nM), and the DMSO concentration was lower than 2%. […]

O=C(c1ccc(O)cc1)N1CCN(c2cnccn2)CC1 [Compound 2, (4-Hydroxyphenyl)(4-(pyrazin-2-yl)piperazin-1-yl)methanone]
solubility kinetic at 24 h ([1]; aqueous buffer, pH 2.0): 125 µM (≈ 35.6 µg/mL) | solubility kinetic at 24 h ([1]; pH 7.4, aqueous buffer): > 153 µM | parasitemia reduction in the spleen ([2]; 50 mg/kg/day i.p., 10 days): 80.0% | parasitemia reduction in the liver ([2]; 50 mg/kg/day i.p., 10 days, not significant): 44.4% | parasitemia reduction in the liver ([2]; 100 mg/kg/day i.p., 10 days): 90.0% | parasitemia reduction in the spleen ([2]; 100 mg/kg/day i.p., 10 days): 91.1% | parasitemia reduction ([2]; 100 mg/kg/day, 7-day treatment (as printed in the conclusion)): over 90% | death among treated mice ([2]; 50 and 100 mg/kg/day i.p., 10 days): No death | external signs of acute toxicity during and after treatment ([2]; 50 and 100 mg/kg/day i.p., 10 days, infected BALB/c mice): No external signs of acute toxicity | IC50 [3]: 7.93 µM | elog(D) [4]: 1.64
